Assay results reported in patent publication US20130209543A1, “ENHANCED TREATMENT REGIMENS USING MTOR INHIBITORS” (Intellikine LLC, priority 2011, published 2013).
Where two headings read alike, the source gives them in different places.

Legend:
Format in all cases: biochemical
PI3K α = PI3K α (Homo sapiens, UniProt P42336); experiment: PI3K α kinase assay
mTOR = target: T1, mTOR (Homo sapiens, UniProt P42345); experiment: mTOR kinase inhibition assay
T1 construct: purchased Invitrogen
Description: The compounds described herein and any other mTorC1/mTorC2 inhibitors known in the art can be tested against recombinant mTOR (Invitrogen) in an assay containing 50 mM HEPES, pH 7.5, 1 mM EGTA, 10 mM MgCl2, 2.5 mM, 0.01% Tween, 10 μM ATP (2.5 μCi of μ-32P-ATP), and 3 mg/mL BSA. Rat recombinant PHAS-1/4EBP1 (Calbiochem; 2 mg/mL) is used as a substrate. Reactions are terminated by spotting onto nitrocellulose, which is washed with 1M NaCl/1% phosphoric acid (approximately 6 times, 5-10 minutes each). Sheets are dried and the transferred radioactivity quantitated by phosphorimaging.
For instance, one can use Invitrogen's LanthaScreen™ Kinase assay to test the inhibitors of mTOR disclosed herein. This assay is a time resolved FRET platform that measures the phosphorylation of GFP labeled 4EBP1 by mTOR kinase. The kinase reaction is performed in a white 384 well microtitre plate. The total reaction volume is 20 μl per well and the reaction buffer composition is 50 mM HEPES pH7.5, 0.01% Polysorbate 20, 1 mM EGTA, 10 mM MnCl2, and 2 mM DTT. In the first step, each well receives 2 ul of test compound in 20% dimethylsulphoxide resulting in a 2% DMSO final concentration. Next, 8ul of mTOR diluted in reaction buffer is added per well for a 60 ng/ml final concentration. To start the reaction, 10 ul of an ATP/GFP-4EBP1 mixture (diluted in reaction buffer) is added per well for a final concentration of 10 μM ATP and 0.5 μM GFP-4EBP1. The plate is sealed and incubated for 1 hour at room temperature. […] The plate is sealed, incubated for 1 hour at room temperature, and then read on a plate reader set up for LanthaScreen™ TR-FRET. Data is analyzed and IC50s are generated using GraphPad Prism 5.

PI3K γ = PI3K γ (Homo sapiens, UniProt P48736); experiment: PI3K γ kinase assay
PI3K δ = PI3K δ (Homo sapiens, UniProt O00329); experiment: PI3K δ kinase assay
PI3K β = PI3K β (Homo sapiens, UniProt P42338); experiment: PI3K β kinase assay
Sequence of PI3K β (P42338 whole entry, species assumed): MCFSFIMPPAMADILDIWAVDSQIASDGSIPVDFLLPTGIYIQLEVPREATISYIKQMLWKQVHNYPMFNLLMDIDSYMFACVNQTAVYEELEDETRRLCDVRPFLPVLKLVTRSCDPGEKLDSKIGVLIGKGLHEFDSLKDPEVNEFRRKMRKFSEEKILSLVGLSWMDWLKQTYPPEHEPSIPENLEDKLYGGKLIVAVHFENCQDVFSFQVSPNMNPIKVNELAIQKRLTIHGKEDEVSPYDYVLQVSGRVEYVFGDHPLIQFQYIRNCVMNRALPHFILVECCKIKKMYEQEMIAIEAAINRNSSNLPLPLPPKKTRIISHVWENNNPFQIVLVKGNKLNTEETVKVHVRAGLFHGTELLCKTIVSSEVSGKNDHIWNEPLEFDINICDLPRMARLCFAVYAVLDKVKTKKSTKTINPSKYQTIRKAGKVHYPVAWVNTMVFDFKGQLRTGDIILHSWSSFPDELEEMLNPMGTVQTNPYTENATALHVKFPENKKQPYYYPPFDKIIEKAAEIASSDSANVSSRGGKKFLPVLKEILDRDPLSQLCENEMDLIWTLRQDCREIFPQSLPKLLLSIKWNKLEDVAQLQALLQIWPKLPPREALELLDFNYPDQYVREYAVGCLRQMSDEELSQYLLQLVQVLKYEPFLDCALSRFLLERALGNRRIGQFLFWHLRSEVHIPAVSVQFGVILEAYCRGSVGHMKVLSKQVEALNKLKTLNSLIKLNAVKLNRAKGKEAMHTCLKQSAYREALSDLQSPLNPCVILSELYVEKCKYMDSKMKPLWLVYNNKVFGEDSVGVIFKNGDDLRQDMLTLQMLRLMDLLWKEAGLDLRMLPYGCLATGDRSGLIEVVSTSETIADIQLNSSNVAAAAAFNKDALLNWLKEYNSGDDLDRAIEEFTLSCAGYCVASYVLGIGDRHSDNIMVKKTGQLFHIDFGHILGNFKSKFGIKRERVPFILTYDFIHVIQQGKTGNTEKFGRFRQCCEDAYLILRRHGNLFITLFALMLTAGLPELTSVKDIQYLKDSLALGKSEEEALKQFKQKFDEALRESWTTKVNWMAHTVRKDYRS
Sequence of PI3K β (P27986 whole entry partner, species assumed): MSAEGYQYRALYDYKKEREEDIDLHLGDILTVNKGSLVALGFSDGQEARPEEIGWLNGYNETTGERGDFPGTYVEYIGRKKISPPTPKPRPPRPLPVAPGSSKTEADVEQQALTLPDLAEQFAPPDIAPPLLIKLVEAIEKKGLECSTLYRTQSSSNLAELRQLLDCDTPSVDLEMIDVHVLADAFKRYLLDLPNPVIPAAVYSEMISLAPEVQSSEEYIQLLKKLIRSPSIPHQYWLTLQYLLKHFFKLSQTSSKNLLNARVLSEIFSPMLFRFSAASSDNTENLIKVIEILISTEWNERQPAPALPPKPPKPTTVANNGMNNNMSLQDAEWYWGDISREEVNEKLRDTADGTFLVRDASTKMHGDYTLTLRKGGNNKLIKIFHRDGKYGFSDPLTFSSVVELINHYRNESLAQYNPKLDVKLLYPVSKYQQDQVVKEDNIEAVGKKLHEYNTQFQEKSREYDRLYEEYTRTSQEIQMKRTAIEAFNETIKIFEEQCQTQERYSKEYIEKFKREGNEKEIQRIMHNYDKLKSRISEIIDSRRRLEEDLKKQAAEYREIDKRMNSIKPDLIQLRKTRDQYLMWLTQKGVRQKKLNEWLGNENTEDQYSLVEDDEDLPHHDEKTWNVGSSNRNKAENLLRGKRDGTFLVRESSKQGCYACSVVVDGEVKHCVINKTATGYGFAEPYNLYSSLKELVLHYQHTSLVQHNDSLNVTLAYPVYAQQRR

Sequence of PI3K α (P42336 whole entry, species assumed): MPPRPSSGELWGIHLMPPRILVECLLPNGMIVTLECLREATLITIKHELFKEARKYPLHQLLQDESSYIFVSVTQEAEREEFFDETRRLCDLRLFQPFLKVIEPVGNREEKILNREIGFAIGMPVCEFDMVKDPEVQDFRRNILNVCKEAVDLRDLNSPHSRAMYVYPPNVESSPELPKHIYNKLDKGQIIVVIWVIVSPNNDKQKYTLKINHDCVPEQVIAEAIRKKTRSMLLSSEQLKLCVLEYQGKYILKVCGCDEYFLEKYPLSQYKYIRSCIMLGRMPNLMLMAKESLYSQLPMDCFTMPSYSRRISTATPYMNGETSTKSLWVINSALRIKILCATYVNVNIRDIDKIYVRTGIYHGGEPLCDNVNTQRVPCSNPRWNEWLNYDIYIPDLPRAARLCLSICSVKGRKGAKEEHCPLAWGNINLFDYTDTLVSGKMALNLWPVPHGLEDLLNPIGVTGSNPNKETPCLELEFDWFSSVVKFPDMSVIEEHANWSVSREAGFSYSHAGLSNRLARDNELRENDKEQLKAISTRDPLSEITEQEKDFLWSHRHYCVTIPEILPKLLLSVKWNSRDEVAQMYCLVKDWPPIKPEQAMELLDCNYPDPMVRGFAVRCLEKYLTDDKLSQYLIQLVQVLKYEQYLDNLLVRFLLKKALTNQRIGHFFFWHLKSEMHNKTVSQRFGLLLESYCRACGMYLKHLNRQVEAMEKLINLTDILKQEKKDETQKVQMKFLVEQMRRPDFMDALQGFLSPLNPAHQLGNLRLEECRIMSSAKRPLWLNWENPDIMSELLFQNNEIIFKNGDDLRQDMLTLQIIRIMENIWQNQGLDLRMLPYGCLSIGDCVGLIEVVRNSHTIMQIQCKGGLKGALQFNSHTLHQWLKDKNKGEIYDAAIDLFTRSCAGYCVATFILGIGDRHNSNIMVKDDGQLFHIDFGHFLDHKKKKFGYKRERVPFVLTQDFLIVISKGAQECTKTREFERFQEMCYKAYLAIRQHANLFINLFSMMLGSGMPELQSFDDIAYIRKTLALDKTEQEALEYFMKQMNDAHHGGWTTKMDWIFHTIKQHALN
Sequence of PI3K α (P27986 whole entry partner, species assumed): as the sequence (P27986 whole entry partner, species assumed) above
Sequence of PI3K δ (O00329 whole entry, species assumed): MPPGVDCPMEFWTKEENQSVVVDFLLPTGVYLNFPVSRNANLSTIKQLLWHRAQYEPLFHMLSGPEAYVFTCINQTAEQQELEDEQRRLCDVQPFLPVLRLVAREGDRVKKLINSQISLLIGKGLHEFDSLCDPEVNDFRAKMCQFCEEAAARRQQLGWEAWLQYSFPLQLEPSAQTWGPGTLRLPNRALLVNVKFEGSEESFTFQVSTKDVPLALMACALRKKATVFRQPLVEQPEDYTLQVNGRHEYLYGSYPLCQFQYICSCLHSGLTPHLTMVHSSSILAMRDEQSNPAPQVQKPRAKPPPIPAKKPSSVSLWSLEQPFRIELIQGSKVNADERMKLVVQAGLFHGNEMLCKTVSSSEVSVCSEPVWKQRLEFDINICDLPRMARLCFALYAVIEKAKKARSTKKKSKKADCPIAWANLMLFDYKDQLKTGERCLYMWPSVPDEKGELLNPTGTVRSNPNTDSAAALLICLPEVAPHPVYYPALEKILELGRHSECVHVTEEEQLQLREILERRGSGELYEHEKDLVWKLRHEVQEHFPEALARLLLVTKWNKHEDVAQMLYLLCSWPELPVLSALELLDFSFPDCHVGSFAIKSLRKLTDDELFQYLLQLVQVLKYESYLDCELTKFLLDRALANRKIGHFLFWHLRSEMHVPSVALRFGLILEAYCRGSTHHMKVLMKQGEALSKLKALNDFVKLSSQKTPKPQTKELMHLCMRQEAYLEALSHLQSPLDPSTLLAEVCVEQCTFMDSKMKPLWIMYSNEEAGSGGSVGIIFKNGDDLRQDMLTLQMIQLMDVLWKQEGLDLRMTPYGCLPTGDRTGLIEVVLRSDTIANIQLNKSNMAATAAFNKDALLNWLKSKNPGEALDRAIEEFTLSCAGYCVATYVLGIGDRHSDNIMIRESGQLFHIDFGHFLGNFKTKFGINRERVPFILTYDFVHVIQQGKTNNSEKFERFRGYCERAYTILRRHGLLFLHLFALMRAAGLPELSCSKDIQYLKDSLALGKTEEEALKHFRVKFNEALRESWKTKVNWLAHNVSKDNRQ
Sequence of PI3K δ (P27986 whole entry partner, species assumed): as the sequence (P27986 whole entry partner, species assumed) above
Sequence of PI3K γ (P48736 whole entry, species assumed): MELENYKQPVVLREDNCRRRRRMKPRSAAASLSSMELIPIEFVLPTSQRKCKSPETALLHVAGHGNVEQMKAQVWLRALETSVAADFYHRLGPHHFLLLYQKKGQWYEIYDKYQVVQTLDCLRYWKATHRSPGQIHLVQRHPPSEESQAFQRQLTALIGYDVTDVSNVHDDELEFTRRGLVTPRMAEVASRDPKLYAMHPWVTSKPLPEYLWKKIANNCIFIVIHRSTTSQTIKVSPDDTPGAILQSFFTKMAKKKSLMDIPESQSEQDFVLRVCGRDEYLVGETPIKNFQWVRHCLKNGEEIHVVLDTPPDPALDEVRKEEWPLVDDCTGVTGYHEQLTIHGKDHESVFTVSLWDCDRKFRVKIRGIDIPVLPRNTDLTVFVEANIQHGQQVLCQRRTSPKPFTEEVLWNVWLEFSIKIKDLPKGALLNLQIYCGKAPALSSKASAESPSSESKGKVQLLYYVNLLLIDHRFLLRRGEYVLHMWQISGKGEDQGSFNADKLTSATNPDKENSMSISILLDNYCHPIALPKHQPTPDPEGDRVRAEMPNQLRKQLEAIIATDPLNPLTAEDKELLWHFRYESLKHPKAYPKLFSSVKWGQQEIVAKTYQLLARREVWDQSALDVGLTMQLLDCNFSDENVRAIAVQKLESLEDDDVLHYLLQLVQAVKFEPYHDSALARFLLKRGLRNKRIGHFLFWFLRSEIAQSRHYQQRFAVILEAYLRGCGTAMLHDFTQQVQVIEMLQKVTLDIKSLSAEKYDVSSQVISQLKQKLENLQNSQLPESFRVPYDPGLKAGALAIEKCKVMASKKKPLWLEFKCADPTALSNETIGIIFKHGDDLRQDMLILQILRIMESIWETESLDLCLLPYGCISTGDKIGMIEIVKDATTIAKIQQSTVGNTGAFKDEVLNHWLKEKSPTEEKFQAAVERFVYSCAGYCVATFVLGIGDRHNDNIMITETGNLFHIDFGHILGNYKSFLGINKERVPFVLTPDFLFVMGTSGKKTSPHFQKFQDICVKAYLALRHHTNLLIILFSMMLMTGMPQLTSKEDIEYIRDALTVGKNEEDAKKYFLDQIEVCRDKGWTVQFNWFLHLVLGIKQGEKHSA

SMILES | IC50 (PI3K α; Table 2) [nM] | IC50 (mTOR; Table 2, read-out: mTORC IC50) [nM] | IC50 (PI3K β; Table 2) [nM] | IC50 (PI3K γ; Table 2) [nM] | other results
COc1cc(F)c2[nH]c(-c3nn(C(C)C)c4ncnc(N)c34)cc2c1 [Compound 14] | > 500 | > 500 | – | – | –
CC(C)(CO)n1nc(-c2ccc3oc(N)nc3c2)c2c(N)ncnc21 [Compound 27] | – | – | – | – | IC50 (PI3K γ; Table 1): > 10000 nM; IC50 (PI3K α; Table 1): < 10000 nM; IC50 (PI3K δ; Table 1): < 1000 nM; IC50 (PI3K β; Table 1): > 10000 nM
CC(C)n1nc(-c2cc3ccccc3[nH]2)c2c(N)ncnc21 [Compound 7] | > 500 | 50 to 100 | – | – | –
CC(C)n1nc(-c2cc3c(Cl)cccc3[nH]2)c2c(N)ncnc21 [Compound 9] | > 500 | 25 to 50 | – | – | –
CCOC(=O)Cn1nc(-c2cc3cc(O)ccc3[nH]2)c2c(N)ncnc21 [Compound 28] | > 500 | 100 to 500 | > 500 | – | IC50 (PI3K δ; Table 2): > 500 nM
COc1cc2cc(-c3nn(C(C)C)c4ncnc(N)c34)[nH]c2cc1Cl [Compound 29] | – | > 500 | – | – | –
CN1CCN(C2CCC(n3nc(-c4cc5cc(O)ccc5[nH]4)c4c(N)ncnc43)CC2)CC1 (stereo not drawn) [Compound 58] | > 500 | > 500 | > 500 | > 500 | –
Nc1ncnc2c1c(-c1cc3cc(O)ccc3[nH]1)nn2C1CC(=O)C1 [Compound 53] | > 500 | 50 to 100 | > 500 | > 500 | –
CNC(=O)CCn1nc(-c2cc3cc(O)ccc3[nH]2)c2c(N)ncnc21 [Compound 43] | > 500 | > 500 | > 500 | – | IC50 (PI3K δ; Table 2): > 500 nM
COc1ccc2[nH]c(-c3nn(C(C)C)c4ncnc(N)c34)cc2c1 [Compound 5] | > 500 | > 500 | – | – | –
CNC(=O)Cn1nc(-c2cc3cc(O)ccc3[nH]2)c2c(N)ncnc21 [Compound 35] | > 500 | > 500 | – | > 500 | IC50 (PI3K δ; Table 2): > 500 nM
COc1ccc2[nH]c(-c3nn(C(C)C)c4ncnc(N)c34)cc2n1 [Compound 18] | – | > 500 | – | – | –
Nc1ncnc2c1c(-c1cc3ccc(O)cc3[nH]1)nn2C1CCOCC1 [Compound 60] | > 500 | 50 to 100 | > 500 | 50 to 100 | –
Nc1ncnc2c1c(-c1cc3cc(O)ccc3[nH]1)nn2C1CCC(N2CCOCC2)CC1 (stereo not drawn) [Compound 57] | > 500 | 10 to 25 | > 500 | > 500 | –
COC(=O)Nc1noc2ccc(-c3nn(C(C)C)c4ncnc(N)c34)cc12 [Compound 19] | – | – | – | – | IC50 (PI3K α; Table 1): > 10000 nM; IC50 (mTOR; Table 1, read-out: mTOR IC50): < 10000 nM; IC50 (PI3K δ; Table 1): > 10000 nM; IC50 (PI3K β; Table 1): > 10000 nM
Nc1nc2cc(-c3nn(C4CC(O)C4)c4ncnc(N)c34)ccc2o1 (stereo not drawn) [Compound 26] | – | – | – | – | IC50 (PI3K γ; Table 1): < 100 nM; IC50 (PI3K α; Table 1): < 100 nM
CC(C)n1nc(-c2ccc3onc(NC4CC4)c3c2)c2c(N)ncnc21 [Compound 16] | – | – | – | – | IC50 (PI3K α; Table 1): > 10000 nM; IC50 (mTOR; Table 1, read-out: mTOR IC50): > 10000 nM; IC50 (PI3K δ; Table 1): > 10000 nM
COc1ccc2cc(-c3nn(C(C)C)c4ncnc(N)c34)[nH]c2c1 [Compound 8] | > 500 | > 500 | – | – | –
CC(C)n1nc(-c2cc3cc(C(N)=O)ccc3[nH]2)c2c(N)ncnc21 [Compound 23] | > 500 | > 500 | – | – | –
CC(C)n1nc(-c2cc3cc(F)ccc3[nH]2)c2c(NC(=O)N(C)C)ncnc21 [Compound 2] | – | > 500 | – | – | –
CC(C)n1nc(-c2cc3cnccc3[nH]2)c2c(N)ncnc21 [Compound 20] | > 500 | > 500 | – | – | –
CC(C)N1CCC(n2nc(-c3cc4cc(O)cc(Cl)c4[nH]3)c3c(N)ncnc32)CC1 [Compound 56] | > 500 | > 500 | > 500 | > 500 | –
COc1cccc2cc(-c3nn(C(C)C)c4ncnc(N)c34)[nH]c12 [Compound 10] | – | 10 to 25 | – | – | –
CC(=O)N1CCC(n2nc(-c3cc4cc(O)ccc4[nH]3)c3c(N)ncnc32)CC1 [Compound 30] | > 500 | 10 to 25 | > 500 | – | IC50 (PI3K δ; Table 2): > 500 nM
Nc1ncnc2c1c(-c1cc3cc(O)ccc3[nH]1)nn2C1CCOCC1 [Compound 42] | > 500 | < 5 | > 500 | – | IC50 (PI3K δ; Table 2): 50 to 100 nM
CC(C)n1nc(-c2cc3c(O)cccc3[nH]2)c2c(N)ncnc21 [Compound 37] | 100 to 500 | > 500 | – | 100 to 500 | IC50 (PI3K δ; Table 2): 100 to 500 nM
COc1ccc2cc(-c3nn(C4CCOCC4)c4ncnc(N)c34)[nH]c2c1 [Compound 59] | > 500 | > 500 | > 500 | > 500 | –
Nc1ncnc2c1c(-c1cc3cc(O)ccc3[nH]1)nn2Cc1cccnc1 [Compound 38] | > 500 | 100 to 500 | – | > 500 | IC50 (PI3K δ; Table 2): > 500 nM
Nc1ncnc2c1c(-c1cc3cc(O)ccc3[nH]1)nn2C1CC(O)C1 (stereo not drawn) [Compound 54] | > 500 | 10 to 25 | > 500 | > 500 | –
